From patent US10246442B2, “4-Aminoquinazolin compounds as prolyl hydroxylase inhibitors” (JANSSEN PHARMACEUTICA NV, priority 2011, dated 2019)

Legend:
PHD2181-417 = PHD2181-417 (Homo sapiens (Human), UniProt Q9GZT9); assay: PHD enzymatic assay ([14C]-succinic acid production); type: biochemical; details: purified PHD2181-417, HIF-1α peptide substrate, 30 min pre-incubation; average of results
In short: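 Recombinant human PHD2 (aa 181-417, E. coli-expressed, tags cleaved) with peptide substrate (10 μM) and [5-14C]-2-oxoglutarate in Tris pH 7.5 with catalase, DTT and ascorbate, 10 min reaction after 30 min compound pre-incubation; compounds at 100 μM final, 1% DMSO. [14C]-succinate separated by DNP precipitation and beta-counted; IC50 from three-parameter logistic fit.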

HIF1-α, Hela cells = assay: Cellular assay for HIF1-α in Hela cells; type: cell-based; details: Homo sapiens, 100 μM compound, 6 hours, percent of HIF stimulation relative to assay control compound 7-[(4-Chloro-phenyl)-(5-methyl-isoxazol-3-ylamino)-methyl]-quinolin-8-ol
Experimental: Cellular Assay for HIF1-α
Hela cells (ATCC, Manassas, Va.) were plated in 96-well plates at 20,000 cells per well in 100 μl of DMEM containing 10% fetal bovine serum, 1% non-essential amino acids, 50 IU/mL of penicillin and 50 μg/mL of streptomycin (all cell culture reagents from Invitrogen, Carlsbad, Calif.). 24 hours after plating, changed media to 100 ul of DMEM without 10% fetal bovine serum, 1.1 μl of the stock solution for each compound was added and incubated for 6 hours. All compounds were tested with a final compound concentration of 100 μM. The supernatant was removed and the cells were lysed in 55 μl of MSD lysis buffer containing protease inhibitors. 50 μl of the cell lysate was then transferred to a blocked MSD human HIF-1α detection plate (Meso-Scale Discovery, Gaithersburg, Md., as per manufacturers protocol), and incubated at room temperature on an orbital shaker for 2 hour. After 3 washes in PBS, 25 μl of 20 nM anti-HIF1α a detection antibody was added and incubated for 1 hour at room temperature on an orbital shaker. After 3 washes in PBS, 150 μl of 1× read buffer was added and the plate was then read on a MSD SECTOR instrument. Data was analyzed by determining the percent of HIF stimulation in the presence of 100 μM compound relative to an assay control compound, 7-[(4-Chloro-phenyl)-(5-methyl-isoxazol-3-ylamino)-methyl]-quinolin-8-ol.

Chain of PHD2181-417 (Q9GZT9 181-417): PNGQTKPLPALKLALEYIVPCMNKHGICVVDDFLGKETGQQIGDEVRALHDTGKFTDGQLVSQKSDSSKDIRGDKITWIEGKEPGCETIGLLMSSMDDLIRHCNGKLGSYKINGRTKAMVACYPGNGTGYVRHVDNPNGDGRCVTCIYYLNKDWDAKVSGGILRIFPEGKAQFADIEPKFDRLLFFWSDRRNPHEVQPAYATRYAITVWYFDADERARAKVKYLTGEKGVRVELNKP

Enzyme pIC50 (PHD2181-417)	SMILES	activation at 100 µM (HIF1-α, Hela cells) [%]
7.1	O=C(O)c1cnn(-c2nc(N3CCC(F)CC3)c3cc(C4CCCCC4)ccc3n2)c1 [Example 31, 1-(6-Cyclohexyl-4-(4-fluoropiperidin-1-yl)quinazolin-2-yl)-1H-pyrazole-4-carboxylic acid]	34
6.8	CC(C)(C)Nc1nc(-n2cc(C(=O)O)cn2)nc2ccc(C3CCCCC3)cc12 [Example 36, 1-(4-(tert-Butylamino)-6-cyclohexylquinazolin-2-yl)-1H-pyrazole-4-carboxylic acid]	23
6.9	O=C(O)c1cnn(-c2nc(NCC3CCCCC3)c3cc(C4CCCCC4)ccc3n2)c1 [Example 39, 1-(6-Cyclohexyl-4-((cyclohexylmethyl)amino)quinazolin-2-yl)-1H-pyrazole-4-carboxylic acid]	6.1
6.6	CS(=O)(=O)Nc1nc(-n2cc(C(=O)O)cn2)nc2ccc(C3CCCCC3)cc12 [Example 40, 1-(6-Cyclohexyl-4-(methylsulfonamido)quinazolin-2-yl)-1H-pyrazole-4-carboxylic acid]	6.7
7.3	O=C(O)c1cnn(-c2nc(N3CCCC3)c3cc(-c4ccccc4)ccc3n2)c1 [Example 43, 1-(6-Phenyl-4-(pyrrolidin-1-yl)quinazolin-2-yl)-1H-pyrazole-4-carboxylic acid]	57
7.1	O=C(O)c1cnn(-c2nc(Nc3ccccc3)c3cc(-c4ccccc4)ccc3n2)c1 [Example 44, 1-(6-Phenyl-4-(phenylamino)quinazolin-2-yl)-1H-pyrazole-4-carboxylic acid]	22
6.6	O=C(O)c1cnn(-c2nc(Nc3ccccc3Cl)c3cc(-c4ccccc4)ccc3n2)c1 [Example 47, 1-(4-((2-Chlorophenyl)amino)-6-phenylquinazolin-2-yl)-1H-pyrazole-4-carboxylic acid]	10
7.2	O=C(O)c1cnn(-c2nc(N3CCCCCC3)c3cc(-c4ccccc4)ccc3n2)c1 [Example 48, 1-(4-(Azepan-1-yl)-6-phenylquinazolin-2-yl)-1H-pyrazole-4-carboxylic acid]	23
6.9	O=C(O)c1cnn(-c2nc(NCC3CCCCC3)c3cc(-c4ccccc4)ccc3n2)c1 [Example 49, 1-(4-((Cyclohexylmethyl)amino)-6-phenylquinazolin-2-yl)-1H-pyrazole-4-carboxylic acid]	3.8
7.1	N#CNc1nc(-n2cc(C(=O)O)cn2)nc2ccc(-c3ccccc3)cc12 [Example 50, 1-(4-Cyanamido-6-phenylquinazolin-2-yl)-1H-pyrazole-4-carboxylic acid]	9.6
6.5	O=C(O)c1cnn(-c2nc(NC3CC3)c3cc(-c4ccccc4)ccc3n2)c1 [Example 51, 1-(4-(Cyclopropylamino)-6-phenylquinazolin-2-yl)-1H-pyrazole-4-carboxylic acid]	40
6.5	CC(C)(C)Nc1nc(-n2cc(C(=O)O)cn2)nc2ccc(-c3ccccc3)cc12 [Example 52, 1-(4-(tert-Butylamino)-6-phenylquinazolin-2-yl)-1H-pyrazole-4-carboxylic acid]	37
7.0	Nc1nc(-n2cc(C(=O)O)cn2)nc2ccc(-c3ccccc3)cc12 [Example 53, 1-(4-Amino-6-phenylquinazolin-2-yl)-1H-pyrazole-4-carboxylic acid]	16
6.7	CC(=O)NC1CCN(c2nc(-n3cc(C(=O)O)cn3)nc3ccc(-c4ccccc4)cc23)CC1 [Example 55, 1-(4-(4-Acetamidopiperidin-1-yl)-6-phenylquinazolin-2-yl)-1H-pyrazole-4-carboxylic acid]	28
6.2	O=C(O)c1cnn(-c2nc(NC3CCOCC3)c3cc(-c4ccccc4)ccc3n2)c1 [Example 56, 1-(6-Phenyl-4-((tetrahydro-2H-pyran-4-yl)amino)quinazolin-2-yl)-1H-pyrazole-4-carboxylic acid]	25
6.4	CN1CCCN(c2nc(-n3cc(C(=O)O)cn3)nc3ccc(-c4ccccc4)cc23)CC1 [Example 57, 1-(4-(4-Methyl-1,4-diazepan-1-yl)-6-phenylquinazolin-2-yl)-1H-pyrazole-4-carboxylic acid]	30

Enzyme pIC50 (PHD2181-417)	SMILES	activation at 100 µM (HIF1-α, Hela cells) [%]
6.5	O=C(O)c1cnn(-c2nc(N3CCOCC3)c3cc(-c4ccccc4)ccc3n2)c1 [Example 58, 1-(4-Morpholino-6-phenylquinazolin-2-yl)-1H-pyrazole-4-carboxylic acid]	49
6.4	N#CC1CCN(c2nc(-n3cc(C(=O)O)cn3)nc3ccc(-c4ccccc4)cc23)CC1 [Example 59, 1-(4-(4-Cyanopiperidin-1-yl)-6-phenylquinazolin-2-yl)-1H-pyrazole-4-carboxylic acid]	45
7.5	O=C(O)c1cnn(-c2nc(NCC3CCCCC3)c3cc(Oc4ccc(Cl)cc4)ccc3n2)c1 [Example 64, 1-(6-(4-Chlorophenoxy)-4-((cyclohexylmethyl)amino)quinazolin-2-yl)-1H-pyrazole-4-carboxylic acid]	1.5
7.5	O=C(O)c1cnn(-c2nc(N3CCCCCC3)c3cc(Oc4ccc(Cl)cc4)ccc3n2)c1 [Example 66, 1-(4-(Azepan-1-yl)-6-(4-chlorophenoxy)quinazolin-2-yl)-1H-pyrazole-4-carboxylic acid]	14
7.3	O=C(O)c1cnn(-c2nc(N3CCSCC3)c3cc(Oc4ccc(Cl)cc4)ccc3n2)c1 [Example 67, 1-(6-(4-Chlorophenoxy)-4-thiomorpholinoquinazolin-2-yl)-1H-pyrazole-4-carboxylic acid]	31
6.7	CC(C)(C)Nc1nc(-n2cc(C(=O)O)cn2)nc2ccc(Oc3ccccc3)cc12 [Example 72, 1-(4-(tert-Butylamino)-6-phenoxyquinazolin-2-yl)-1H-pyrazole-4-carboxylic acid]	32
7.3	CCN(CC)c1nc(-n2cc(C(=O)O)cn2)nc2ccc(Oc3ccccc3)cc12 [Example 74, 1-(4-(Diethylamino)-6-phenoxyquinazolin-2-yl)-1H-pyrazole-4-carboxylic acid]	81
6.5	O=C(O)c1cnn(-c2nc(NC3CCOCC3)c3cc(Oc4ccccc4)ccc3n2)c1 [Example 76, 1-(6-Phenoxy-4-((tetrahydro-2H-pyran-4-yl)amino)quinazolin-2-yl)-1H-pyrazole-4-carboxylic acid]	19
6.0	CN(C)c1nc(-n2cc(C(=O)O)cn2)nc2cc(-c3ccccc3)ccc12 [Example 80, 1-(4-(Dimethylamino)-7-phenylquinazolin-2-yl)-1H-pyrazole-4-carboxylic acid]	7.8
5.5	O=C(O)c1cnn(-c2nc(N3CCCC3)c3ccc(-c4ccccc4)cc3n2)c1 [Example 81, 1-(7-Phenyl-4-(pyrrolidin-1-yl)quinazolin-2-yl)-1H-pyrazole-4-carboxylic acid]	10
6.1	O=C(O)c1cnn(-c2nc(N3CCCCC3)c3ccc(-c4ccccc4)cc3n2)c1 [Example 82, 1-(7-Phenyl-4-(piperidin-1-yl)quinazolin-2-yl)-1H-pyrazole-4-carboxylic acid]	4.6
6.8	O=C(O)c1cnn(-c2nc(NCC3CCCCC3)c3ccc(Oc4ccccc4)cc3n2)c1 [Example 84, 1-(4-((Cyclohexylmethyl)amino)-7-phenoxyquinazolin-2-yl)-1H-pyrazole-4-carboxylic acid]	4.6
6.8	CC(C)C1CCN(c2nc(-n3cc(C(=O)O)cn3)nc3cc(Oc4ccccc4)ccc23)CC1 [Example 85, 1-(4-(4-isopropylpiperidin-1-yl)-7-phenoxyquinazolin-2-yl)-1H-pyrazole-4-carboxylic acid]	1.7
6.3	O=C(O)c1cnn(-c2nc(NC3CC3)c3ccc(Oc4ccccc4)cc3n2)c1 [Example 86, 1-(4-(Cyclopropylamino)-7-phenoxyquinazolin-2-yl)-1H-pyrazole-4-carboxylic acid]	13
6.2	O=C(O)c1cnn(-c2nc(N3CCOCC3)c3ccc(Oc4ccccc4)cc3n2)c1 [Example 89, 1-(4-Morpholino-7-phenoxyquinazolin-2-yl)-1H-pyrazole-4-carboxylic acid]	17
